Assay results reported in patent US9550772B2, “Azaindole derivatives as multi kinase inhibitors” (ORIBASE PHARMA, priority 2012, dated 2017).
Read-outs that look alike come from different tables or passages of the source.

Tests used:
PDGFRA (PDGFR alpha) = target: T1, PDGFRA (PDGFR alpha) (Homo sapiens, UniProt P16234); experiment: In vitro kinase assay (Z'-LYTE, Invitrogen); assay type: biochemical; settings: compound at 100 nM, ATP Km apparent, read-out: % of inhibition of the kinase compared to the control
T1 construct: purchased Invitrogen
T1 sequence (P16234 24-1089): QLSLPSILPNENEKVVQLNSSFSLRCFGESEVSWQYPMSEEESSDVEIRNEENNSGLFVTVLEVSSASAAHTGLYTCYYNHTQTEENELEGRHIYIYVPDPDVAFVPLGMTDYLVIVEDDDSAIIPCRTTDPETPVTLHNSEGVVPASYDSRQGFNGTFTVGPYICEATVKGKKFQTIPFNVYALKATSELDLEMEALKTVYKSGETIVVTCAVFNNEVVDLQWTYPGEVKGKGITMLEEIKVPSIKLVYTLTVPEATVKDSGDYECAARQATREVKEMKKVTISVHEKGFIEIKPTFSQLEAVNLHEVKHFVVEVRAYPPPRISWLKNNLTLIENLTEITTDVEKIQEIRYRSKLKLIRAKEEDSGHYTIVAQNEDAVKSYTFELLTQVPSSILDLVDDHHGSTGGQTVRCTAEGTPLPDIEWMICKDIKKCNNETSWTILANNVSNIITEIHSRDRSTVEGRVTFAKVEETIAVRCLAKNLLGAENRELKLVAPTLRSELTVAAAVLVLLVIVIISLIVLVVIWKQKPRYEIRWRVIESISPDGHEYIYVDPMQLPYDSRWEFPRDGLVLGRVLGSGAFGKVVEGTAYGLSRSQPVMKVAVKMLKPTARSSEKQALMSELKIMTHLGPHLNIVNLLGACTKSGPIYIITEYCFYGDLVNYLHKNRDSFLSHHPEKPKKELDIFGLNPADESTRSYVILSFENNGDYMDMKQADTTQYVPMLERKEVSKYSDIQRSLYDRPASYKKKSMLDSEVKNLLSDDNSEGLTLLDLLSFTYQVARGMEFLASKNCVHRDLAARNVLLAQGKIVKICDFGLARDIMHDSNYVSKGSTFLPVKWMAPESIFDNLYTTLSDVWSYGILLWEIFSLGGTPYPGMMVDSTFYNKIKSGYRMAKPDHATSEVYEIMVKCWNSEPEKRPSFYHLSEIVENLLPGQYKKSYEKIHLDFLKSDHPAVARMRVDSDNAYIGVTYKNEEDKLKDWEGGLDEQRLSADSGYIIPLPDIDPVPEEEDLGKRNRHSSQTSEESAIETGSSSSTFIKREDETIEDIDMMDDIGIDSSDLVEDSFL
Procedure: (§1) The inhibitory activity of the compounds on 7 kinases (BRAF, EGFR (ErbB1), EGFR (ErbB1) T790M L858R, FGFR2, KDR (VEGFR2), PDGFRA (PDGFR alpha), SRC) was evaluated by Invitrogen using the Z′-LYTE® technology. Briefly, the Z′-LYTE® biochemical assay employs a fluorescence-based, coupled-enzyme format and is based on the differential sensitivity of phosphorylated and non-phosphorylated peptides to proteolytic cleavage. The peptide substrate is labeled with two fluorophores—one at each end—that make up a FRET pair. A ratiometric method, which calculates the ratio (the Emission Ratio) of donor emission to acceptor emission after excitation of the donor fluorophore at 400 nm, is used to quantitate reaction progress.
(§2) The compounds are screened in 1% DMSO (final) in the well. For 10 point titrations, 3-fold serial dilutions are conducted from the starting concentration. All Peptide/Kinase Mixtures are diluted to a 2× working concentration in the appropriate Kinase Buffer. All ATP Solutions are diluted to a 4× working concentration in Kinase Buffer (50 mM HEPES pH 7.5, 0.01% BRIJ-35, 10 mM MgCl2, 1 mM EGTA). ATP Km apparent is previously determined using a Z′-LYTE® assay.
(§3) Each compound was incubated at a concentration of 100 nM and the tables 21 to 27 summarize the results obtained showing the inhibitory power of a compound.

EGFR (ErbB1) = target: T2, EGFR (ErbB1) (Homo sapiens, UniProt P00533); experiment: In vitro kinase assay (Z'-LYTE, Invitrogen); assay type: biochemical; settings: compound at 100 nM, ATP Km apparent, read-out: % of inhibition of the kinase compared to the control
T2 construct: purchased Invitrogen
T2 sequence (P00533 25-1210): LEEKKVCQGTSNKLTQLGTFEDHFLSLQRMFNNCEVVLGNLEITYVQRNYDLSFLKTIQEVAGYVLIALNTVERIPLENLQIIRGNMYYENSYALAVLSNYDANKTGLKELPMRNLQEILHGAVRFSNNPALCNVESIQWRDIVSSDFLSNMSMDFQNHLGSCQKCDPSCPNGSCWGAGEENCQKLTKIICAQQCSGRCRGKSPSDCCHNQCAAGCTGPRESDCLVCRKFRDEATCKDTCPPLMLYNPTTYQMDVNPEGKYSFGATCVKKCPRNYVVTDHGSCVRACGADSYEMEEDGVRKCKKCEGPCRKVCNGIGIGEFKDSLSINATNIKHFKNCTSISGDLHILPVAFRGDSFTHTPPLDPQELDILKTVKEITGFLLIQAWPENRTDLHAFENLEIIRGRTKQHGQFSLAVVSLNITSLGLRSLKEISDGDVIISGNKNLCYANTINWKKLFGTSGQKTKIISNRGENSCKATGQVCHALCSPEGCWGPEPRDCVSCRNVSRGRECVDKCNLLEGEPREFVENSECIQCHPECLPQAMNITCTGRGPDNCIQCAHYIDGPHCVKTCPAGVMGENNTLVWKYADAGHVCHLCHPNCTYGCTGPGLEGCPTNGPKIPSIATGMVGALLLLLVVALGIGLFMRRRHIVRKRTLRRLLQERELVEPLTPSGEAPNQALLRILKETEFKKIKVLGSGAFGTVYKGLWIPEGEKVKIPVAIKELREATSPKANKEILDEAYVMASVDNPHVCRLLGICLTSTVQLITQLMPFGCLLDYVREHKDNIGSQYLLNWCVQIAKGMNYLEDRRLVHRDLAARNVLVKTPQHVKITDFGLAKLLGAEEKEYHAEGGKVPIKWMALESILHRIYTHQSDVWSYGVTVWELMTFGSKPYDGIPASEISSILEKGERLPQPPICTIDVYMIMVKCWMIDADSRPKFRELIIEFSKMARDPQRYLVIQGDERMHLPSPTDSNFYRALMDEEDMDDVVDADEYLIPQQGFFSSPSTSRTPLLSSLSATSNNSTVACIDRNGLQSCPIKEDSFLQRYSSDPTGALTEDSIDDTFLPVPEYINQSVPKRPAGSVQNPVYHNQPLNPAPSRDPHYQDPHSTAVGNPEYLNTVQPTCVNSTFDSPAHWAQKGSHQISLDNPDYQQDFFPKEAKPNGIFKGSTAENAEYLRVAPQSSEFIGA
Procedure: as §1, §2, §3

BRAF = target: T3, BRAF (Homo sapiens, UniProt P15056); experiment: In vitro kinase assay (Z'-LYTE, Invitrogen); assay type: biochemical; settings: compound at 100 nM, ATP Km apparent, read-out: % of inhibition of the kinase compared to the control
T3 construct: purchased Invitrogen
T3 sequence (P15056 whole entry): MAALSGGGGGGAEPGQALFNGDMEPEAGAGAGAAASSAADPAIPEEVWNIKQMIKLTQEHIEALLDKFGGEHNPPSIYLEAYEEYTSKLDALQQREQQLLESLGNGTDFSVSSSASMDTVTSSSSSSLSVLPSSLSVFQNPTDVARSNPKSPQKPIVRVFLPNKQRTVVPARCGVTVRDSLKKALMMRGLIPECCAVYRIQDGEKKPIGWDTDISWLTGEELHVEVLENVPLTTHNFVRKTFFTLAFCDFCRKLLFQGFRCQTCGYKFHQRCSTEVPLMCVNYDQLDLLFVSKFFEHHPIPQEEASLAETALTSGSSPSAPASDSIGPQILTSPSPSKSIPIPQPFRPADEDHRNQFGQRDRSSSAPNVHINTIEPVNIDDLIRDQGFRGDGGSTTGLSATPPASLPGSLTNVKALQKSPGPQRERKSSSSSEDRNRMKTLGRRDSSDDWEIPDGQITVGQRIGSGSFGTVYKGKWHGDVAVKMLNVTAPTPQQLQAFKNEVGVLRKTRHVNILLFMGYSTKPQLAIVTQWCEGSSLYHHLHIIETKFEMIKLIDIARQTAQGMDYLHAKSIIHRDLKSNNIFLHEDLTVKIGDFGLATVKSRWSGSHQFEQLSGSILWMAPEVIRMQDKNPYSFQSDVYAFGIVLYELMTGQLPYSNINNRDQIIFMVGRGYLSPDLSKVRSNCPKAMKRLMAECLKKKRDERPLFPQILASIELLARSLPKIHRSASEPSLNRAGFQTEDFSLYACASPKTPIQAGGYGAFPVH
Procedure: as §1, §2, §3

FGFR2 = target: T4, FGFR2 (Homo sapiens, UniProt P21802); experiment: In vitro kinase assay (Z'-LYTE, Invitrogen); assay type: biochemical; settings: compound at 100 nM, ATP Km apparent, read-out: % of inhibition of the kinase compared to the control
T4 construct: purchased Invitrogen
T4 sequence (P21802 22-821): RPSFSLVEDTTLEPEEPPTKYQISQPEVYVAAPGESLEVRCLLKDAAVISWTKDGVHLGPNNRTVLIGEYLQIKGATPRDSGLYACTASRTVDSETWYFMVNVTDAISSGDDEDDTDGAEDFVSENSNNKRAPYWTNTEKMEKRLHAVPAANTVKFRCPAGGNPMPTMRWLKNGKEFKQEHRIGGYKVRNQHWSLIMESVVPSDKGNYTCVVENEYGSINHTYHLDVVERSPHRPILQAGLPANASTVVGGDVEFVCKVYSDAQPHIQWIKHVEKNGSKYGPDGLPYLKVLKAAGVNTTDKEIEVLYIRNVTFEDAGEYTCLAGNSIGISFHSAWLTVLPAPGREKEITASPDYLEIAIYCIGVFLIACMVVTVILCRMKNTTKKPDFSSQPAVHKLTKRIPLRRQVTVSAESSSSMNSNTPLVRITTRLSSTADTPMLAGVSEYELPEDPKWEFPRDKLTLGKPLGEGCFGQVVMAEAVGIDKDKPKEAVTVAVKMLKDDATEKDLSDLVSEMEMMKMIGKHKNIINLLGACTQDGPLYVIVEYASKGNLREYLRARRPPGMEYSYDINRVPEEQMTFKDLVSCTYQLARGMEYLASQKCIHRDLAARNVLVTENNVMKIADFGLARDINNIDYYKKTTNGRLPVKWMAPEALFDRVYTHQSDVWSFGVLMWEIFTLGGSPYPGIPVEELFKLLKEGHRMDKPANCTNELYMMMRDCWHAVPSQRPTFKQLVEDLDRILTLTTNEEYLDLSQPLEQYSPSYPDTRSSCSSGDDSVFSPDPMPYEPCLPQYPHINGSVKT
Procedure: as §1, §2, §3

KDR (VEGFR2) = target: T5, KDR (VEGFR2) (Homo sapiens, UniProt P35968); experiment: In vitro kinase assay (Z'-LYTE, Invitrogen); assay type: biochemical; settings: compound at 100 nM, ATP Km apparent, read-out: % of inhibition of the kinase compared to the control
T5 construct: purchased Invitrogen
Procedure: as §1, §2, §3

SRC = target: T6, SRC (Homo sapiens, UniProt P12931); experiment: In vitro kinase assay (Z'-LYTE, Invitrogen); assay type: biochemical; settings: compound at 100 nM, ATP Km apparent, read-out: % of inhibition of the kinase compared to the control
T6 construct: purchased Invitrogen
T6 sequence (P12931 whole entry): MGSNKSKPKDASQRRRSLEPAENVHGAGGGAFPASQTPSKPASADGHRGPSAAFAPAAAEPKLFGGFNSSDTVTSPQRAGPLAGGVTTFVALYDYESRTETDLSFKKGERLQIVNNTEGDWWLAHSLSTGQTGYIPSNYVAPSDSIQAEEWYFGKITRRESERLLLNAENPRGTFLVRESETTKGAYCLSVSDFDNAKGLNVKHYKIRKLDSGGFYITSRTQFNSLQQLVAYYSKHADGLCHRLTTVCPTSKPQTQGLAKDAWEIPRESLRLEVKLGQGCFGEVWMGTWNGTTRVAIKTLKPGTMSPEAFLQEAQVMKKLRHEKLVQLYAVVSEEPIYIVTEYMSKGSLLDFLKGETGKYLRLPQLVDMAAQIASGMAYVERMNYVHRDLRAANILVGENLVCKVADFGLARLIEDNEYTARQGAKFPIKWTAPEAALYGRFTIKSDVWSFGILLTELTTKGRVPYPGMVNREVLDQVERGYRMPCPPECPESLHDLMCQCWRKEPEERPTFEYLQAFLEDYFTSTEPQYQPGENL
Procedure: as §1, §2, §3

HUVEC cells = experiment: In vitro cell proliferation assay (MTT); assay type: cell-based; settings: Homo sapiens, 72 hr, read-out: EC50, anti-proliferative activity
Procedure: (§4) Cancer cell lines (5×10^3 cells per well) or HUVEC (1×10^4 cells per well) or HRMEC (1×10^4 cells per well) were distributed in 96-well plates and incubating in duplicate with escalating concentrations (10 nM to 3 μM) of compounds for 72 hr. Cell proliferation was measured using MTT (3[4,5-dimethylthiazol-2-yl]-2,5-diphenyltetrazolium bromide). The EC50 values were calculated from sigmoidal dose-response curves utilizing Prism 5.0 from Graph-Pad Software (GraphPad Software, La Jolla, Calif., USA), with values normalized to those of DMSO-treated control wells (0%) and 1% SDS control wells (100%).

HepG2 cell line = experiment: In vitro cell proliferation assay (MTT); assay type: cell-based; settings: Homo sapiens, HepG2, 72 hr, read-out: EC50, anti-proliferative activity
Procedure: as §4

MDA-MB-231 cell line = experiment: In vitro cell proliferation assay (MTT); assay type: cell-based; settings: Homo sapiens, MDA-MB-231, 72 hr, read-out: EC50, anti-proliferative activity
Procedure: as §4

HeLa cell line = experiment: In vitro cell proliferation assay (MTT); assay type: cell-based; settings: Homo sapiens, 72 hr, EC50 ≧ 1 μM, read-out: EC50, anti-proliferative activity
Procedure: as §4

A549 cell line = experiment: In vitro cell proliferation assay (MTT); assay type: cell-based; settings: Homo sapiens, A549, 72 h, EC50 ≧ 1 μM, read-out: EC50, anti-proliferative activity
Procedure: as §4

Row | inhibition at 0.1 µM (PDGFRA (PDGFR alpha)) | inhibition at 0.1 µM (EGFR (ErbB1)) | inhibition at 0.1 µM (BRAF) | inhibition at 0.1 µM (FGFR2) | inhibition at 0.1 µM (KDR (VEGFR2)) | inhibition at 0.1 µM (SRC) | EC50 (HepG2 cell line; EC50 ≧ 1 μM) | EC50 (MDA-MB-231 cell line; EC50 ≧ 1 μM) | EC50 (HeLa cell line) | EC50 (A549 cell line) | EC50 (MDA-MB-231 cell line; 100 nM < EC50 < 1 μM) | EC50 (HepG2 cell line; 100 nM < EC50 < 1 μM) | Structure (SMILES) | EC50 (HUVEC cells; EC50 ≧ 1 μM) | EC50 (HUVEC cells; 100 nM < EC50 < 1 μM)
1 | ≥ 50% | < 50% | ≥ 50% | < 50% | ≥ 50% | ≥ 50% | ≥ 1 µM |  |  |  |  |  | COC(=O)c1cc2cc(CCc3cccc(NC(=O)c4cncc(C(F)(F)F)c4)c3)cnc2[nH]1 [OR0981, 5-(2-{3-[(5-Trifluoromethyl-pyridine-3-carbonyl)-amino]-phenyl}-ethyl)-1H-pyrrolo[2,3-b]pyridine-2-carboxylic acid methyl ester] | ≥ 1 µM | 
2 |  | < 50% | < 50% | < 50% | ≥ 50% |  | ≥ 1 µM | ≥ 1 µM | ≥ 1 µM | ≥ 1 µM |  |  | COC(=O)c1cc2cc(CCc3cccc(CNC(=O)c4ccc(CN5CCN(C)CC5)c(C(F)(F)F)c4)c3)cnc2[nH]1 [OR1018, 5-[2-(3-{[4-(4-Methyl-piperazin-1-ylmethyl)-3-trifluoromethyl-benzoylamino]-methyl}-phenyl)-ethyl]-1H-pyrrolo[2,3-b]pyridine-2-carboxylic acid methyl ester] | ≥ 1 µM | 
3 | < 50% | < 50% | < 50% | < 50% | < 50% | < 50% | ≥ 1 µM |  |  |  |  |  | CC(=O)c1cc2cc(CCc3cc(NS(=O)(=O)c4cccc(C(F)(F)F)c4)ccc3C)cnc2[nH]1 [OR0967, N-{3-[2-(2-Acetyl-1H-pyrrolo[2,3-b]pyridin-5-yl)-ethyl]-4-methyl-phenyl}-3-trifluoromethyl-benzenesulfonamide] | ≥ 1 µM | 
4 | ≥ 50% | < 50% | < 50% | < 50% | < 50% | < 50% |  |  |  |  |  |  | COC(=O)c1cc2cc(CCc3cc(NC(=O)c4ccccc4OC)ccc3Cl)cnc2[nH]1 [OR1064, 5-{2-[2-Chloro-5-(2-methoxy-benzoylamino)-phenyl]-ethyl}-1H-pyrrolo[2,3-b]pyridine-2-carboxylic acid methyl ester] |  | 
5 | ≥ 50% | < 50% | < 50% | < 50% | ≥ 50% | < 50% | ≥ 1 µM |  |  |  |  |  | COC(=O)c1cc2cc(CCc3cccc(NC(=O)c4ccc5[nH]ccc5c4)c3)cnc2[nH]1 [OR0978, 5-(2-{3-[(1H-Indole-5-carbonyl)-amino]-phenyl}-ethyl)-1H-pyrrolo[2,3-b]pyridine-2-carboxylic acid methyl ester] | ≥ 1 µM | 
6 | < 50% | < 50% | < 50% | < 50% | < 50% | < 50% | ≥ 1 µM |  |  |  |  |  | COC(=O)c1cc2cc(CCc3cccc(NC(=O)c4cc[nH]c4)c3)cnc2[nH]1 [OR0976, 5-(2-{3-[(1H-Pyrrole-3-carbonyl)-amino]-phenyl}-ethyl)-1H-pyrrolo[2,3-b]pyridine-2-carboxylic acid methyl ester] | ≥ 1 µM | 
7 |  | ≥ 50% | < 50% | < 50% | ≥ 50% |  | ≥ 1 µM |  | ≥ 1 µM | ≥ 1 µM | 0.1 to 1 µM |  | COC(=O)c1cc2cc(NCCc3cccc(NC(=O)c4ccc(CN5CCN(C)CC5)c(C(F)(F)F)c4)c3)cnc2[nH]1 [OR1019, 5-(2-{3-[4-(4-Methyl-piperazin-1-ylmethyl)-3-trifluoromethyl-benzoylamino]-phenyl}-ethylamino)-1H-pyrrolo[2,3-b]pyridine-2-carboxylic acid methyl ester] | ≥ 1 µM | 
8 |  | ≥ 50% | < 50% | ≥ 50% | ≥ 50% |  | ≥ 1 µM |  |  |  |  |  | COC(=O)c1cc2cc(CCc3cc(NC(=S)c4ccc(CN5CCN(C)CC5)cc4)ccc3C)cnc2[nH]1 [OR0969, 5-(2-{2-Methyl-5-[4-(4-methyl-piperazin-1-ylmethyl)-thiobenzoylamino]-phenyl}-ethyl)-1H-pyrrolo[2,3-b]pyridine-2-carboxylic acid methyl ester] | ≥ 1 µM | 
9 | ≥ 50% | < 50% | < 50% | < 50% | < 50% | < 50% | ≥ 1 µM |  |  |  |  |  | COC(=O)c1cc2cc(CCc3cc(NC(=O)Nc4cccc(C(F)(F)F)c4)ccc3C)cnc2[nH]1 [OR0918, 5-(2-{2-Methyl-5-[3-(3-trifluoromethyl-phenyl)-ureido]-phenyl}-ethyl)-1H-pyrrolo[2,3-b]pyridine-2-carboxylic acid methyl ester] | ≥ 1 µM | 
10 |  | ≥ 50% | ≥ 50% | ≥ 50% | ≥ 50% |  |  |  |  |  |  | 0.1 to 1 µM | COC(=O)c1cc2cc(CCc3cc(NC(=O)c4ccc(CN5CCN(C)CC5)c(F)c4)ccc3C)cnc2[nH]1 [OR0920, 5-(2-{5-[3-Fluoro-4-(4-methyl-piperazin-1-ylmethyl)-benzoylamino]-2-methyl-phenyl}-ethyl)-1H-pyrrolo[2,3-b]pyridine-2-carboxylic acid methyl ester] | ≥ 1 µM | 
11 |  | ≥ 50% | < 50% | ≥ 50% | ≥ 50% |  |  |  |  |  |  |  | Cc1ccc(NC(=O)c2ccc(CN3CCN(C)CC3)c(C(F)(F)F)c2)cc1CCc1cnc2[nH]c(C(=O)O)cc2c1 [OR1054, 5-(2-{2-Methyl-5-[4-(4-methyl-piperazin-1-ylmethyl)-3-trifluoromethyl-benzoylamino]-phenyl}-ethyl)-1H-pyrrolo[2,3-b]pyridine-2-carboxylic acid] |  | 
12 |  | ≥ 50% | < 50% | ≥ 50% | ≥ 50% |  | ≥ 1 µM |  |  |  |  |  | COC(=O)c1cc2cc(CCc3cccc(NC(=O)c4ccc(CN5CCC(N(C)C)C5)c(C(F)(F)F)c4)c3)cnc2[nH]1 (stereo not shown) [OR0922, 5-(2-{5-[4-(3-Dimethylamino-pyrrolidin-1-ylmethyl)-3-trifluoromethyl-benzoylamino]-phenyl}-ethyl)-1H-pyrrolo[2,3-b]pyridine-2-carboxylic acid methyl ester] |  | 0.1 to 1 µM
13 |  |  |  |  |  |  | ≥ 1 µM | ≥ 1 µM | ≥ 1 µM | ≥ 1 µM |  |  | COC(=O)c1cc2cc(C=Cc3cccc(C(=O)Nc4cccc(C(F)(F)F)c4)c3)cnc2[nH]1 [OR1046, 5-{2-[3-(3-Trifluoromethyl-phenylcarbamoyl)-phenyl]-vinyl}-1H-pyrrolo[2,3-b]pyridine-2-carboxylic acid methyl ester] | ≥ 1 µM | 
14 | < 50% | < 50% | < 50% | < 50% | < 50% | < 50% | ≥ 1 µM |  |  |  |  |  | COC(=O)c1cc2cc(CCc3cccc(NC(=O)c4ccc5[nH]nnc5c4)c3)cnc2[nH]1 [OR0977, 5-(2-{3-[(1H-Benzotriazole-5-carbonyl)-amino]-phenyl}-ethyl)-1H-pyrrolo[2,3-b]pyridine-2-carboxylic acid methyl ester] | ≥ 1 µM | 
15 |  |  |  |  |  |  |  |  |  |  |  |  | CCN(CC)CCNC(=O)c1c(C)[nH]c(/C=C2\C(=O)Nc3ccc(F)cc32)c1C [Sunitinib, reference compound] | ≥ 1 µM | 
